This is an account of results in patent US20070259897A1, “Fungicidal Mixtures” (BASF Aktiengesellschaft, priority 2004, published 2007).

This test has as its system Cochliobolus miyabeanus. Kind of test: Activity against brown spot of rice caused by Cochliobolus miyabeanus, protective application. The format is in vivo. Conditions: individual active compound, evaluated after 6 days. How it is done:
The active compounds, separately or jointly, were prepared as a stock solution comprising 0.25% by weight of active compound in acetone or DMSO. 1% by weight of the emulsifier Uniperol® EL (wetting agent having emulsifying and dispersing action based on ethoxylated alkylphenols) was added to this solution, and the mixture was appropriately diluted with water to the desired concentration.
Use example—Activity against brown spot of rice caused by Cochliobolus miyabeanus, protective application Leaves of rice seedlings of the cultivar “Tai-Nong 67” which had been grown in pots were sprayed to runoff point with an aqueous suspension having the concentration of active compound stated below. The next day, the plants were inoculated with an aqueous spore suspension of Cochliobolus miyabeanus. The test plants were then placed in climatized chambers at 22-24° C. and 95-99% relative atmospheric humidity for 6 days. The extent of the development of infection on the leaves was then determined visually.
The visually determined values for the percentage of infected leaf area were converted into efficacies as a % of the untreated control:
The efficacy (E) is calculated as follows using Abbot's formula: E=(1−α/β)·100 α corresponds to the fungal infection of the treated plants in % and β corresponds to the fungal infection of the untreated (control) plants in % An efficacy of 0 means that the infection level of the treated plants corresponds to that of the untreated control plants; an efficacy of 100 means that the treated plants are not infected.
The expected efficacies of the mixtures of active compounds were determined using Colby's formula [R. S. Colby, “Calculating synergistic and antagonistic responses of herbicide combinations”, Weeds, 15, 20-22 (1967)] and are compared with the observed efficacies.
Colby's formula: E=x+y−x·y/100
E expected efficacy, expressed in % of the untreated control, when using the mixture of the active compounds A and B at the concentrations a and b x efficacy, expressed in % of the untreated control, when using active compound A at the concentration a y efficacy, expressed in % of the untreated control, when using active compound B at the concentration b

`CC1CCN(c2c(-c3c(F)cc(F)cc3F)c(Cl)nc3ncnn23)CC1` [I, 5-chloro-7-(4-methylpiperidin-1-yl)-6-(2,4,6-trifluorophenyl)[1,2,4]tri-azolo[1,5-a]pyrimidine]: the “Efficacy in % of the untreated control” value by setting is: (3.1 ppm in the spray liquor) 22%; (6.25 ppm in the spray liquor) 56%.

Consider `CC12CC1(C)C(=O)N(c1cc(Cl)cc(Cl)c1)C2=O` (stereo not shown) [II (procymidone), 3-(3,5-dichlorophenyl)-1,5-dimethyl-3-aza-bicyclo[3.1.0]hexane-2,4-dione], for which the “Efficacy in % of the untreated control” value is, setting by setting: (6.25 ppm in the spray liquor) 22%; (12.4 ppm in the spray liquor) 44%.
